In US20050180991A1, “Hypotensive agent and food” (priority 2004, published 2005):

How the values were obtained:
[1] = Body weight of SHR rats during daily oral dosing; format: in vivo, rat; conditions: n=10, oral once daily, CM6271 300 mg/kg, hydralazine 5 mg/kg
Excerpt: Figures in Table 1 represent mean±SD (standard deviation).

[2] = test system: SHR (spontaneously hypertensive rat); experiment: Systolic blood pressure by the tail cuff method in SHR rats; format: in vivo; conditions: mean±SD; for Blood pressure (mmHg) Before dosing: n=10, baseline in acclimatization period; for Blood pressure (mmHg) 2nd dosing week: n=10, oral once daily, CM6271 300 mg/kg, hydralazine 5 mg/kg, 23 to 25 hours after dosing in 2nd dosing week, *p<0.05, **p<0.01 vs. control
Procedure: (§1) For statistical analysis of blood pressure, pulse rate and body weight data, Dunnett test was used to make intergroup comparisons, and the level of significance was less than 5% (p<0.05) and less than 1% (p<0.01).
(§2) Systolic blood pressure and pulse rate were measured in all animals by the tail cuff method using an automated noninvasive sphygmomanometer (BP-98A, Softron Co., Ltd.) once during the acclimatization period and 23 to 25 hours after dosing in the second dosing week. Figures in Table 2 represent mean±SD.

[3] = test system: SHR (spontaneously hypertensive rat); experiment: Pulse rate by the tail cuff method in SHR rats; format: in vivo; conditions: mean±SD; for Pulse rate (bpm) Before dosing: n=10, baseline in acclimatization period; for Pulse rate (bpm) 2nd dosing week: n=10, oral once daily, CM6271 300 mg/kg, hydralazine 5 mg/kg, 23 to 25 hours after dosing in 2nd dosing week
Procedure: as §1, §2

[4] = test system: SHR (spontaneously hypertensive rat); conditions: SHR rats, observed once daily at dosing

For `NNc1nncc2ccccc12` [Hydralazine, hydralazine], the “Body weight (g) Day 15” value ([1]; Day 15, mean±SD) was 261.5 ± 13.7 g, the “Body weight (g) Day 22” value ([1]; Day 22, mean±SD) was 276.1 ± 12.8 g and the “Blood pressure (mmHg) Before dosing” value [2] was 164.9 ± 8.8 mmHg. For the same compound, the “Blood pressure (mmHg) Before dosing” value ([2]; listed as hydralazine) was 164.9 mmHg, the “Blood pressure (mmHg) 2nd dosing week” value [2] was 138.4 ± 12.1** mmHg and the “Blood pressure (mmHg) 2nd dosing week” value ([2]; listed as hydralazine) was 138.4 mmHg. The “Pulse rate (bpm) Before dosing” value [3] was 401.3 ± 19.4 bpm, the “Pulse rate (bpm) Before dosing” value ([3]; listed as hydralazine) was 401.3 bpm and the “Pulse rate (bpm) 2nd dosing week” value [3] was 423.6 ± 31.9 bpm. The “Pulse rate (bpm) 2nd dosing week” value ([3]; listed as hydralazine) was 423.6 bpm and the General observations [4] was “Soft stools were observed in some animals”.
